From patent US20210045385A1, “PYRIDAZINONE-SUBSTITUTED KETOXIMES AS HERBICIDES” (FMC Corporation, priority 2018, published 2021)

Experiments:
Format in all cases: in vivo
[1] = test system: Italian ryegrass (Lolium multiflorum); experiment: Test A preemergence, visual plant response rating; settings: for Ryegrass, Italian plant response rating: 125 g ai/ha, preemergence, 0 to 100 scale, 0 no effect, 100 complete control; for Ryegrass, Italian plant response rating (0 to 100 scale): 500 g ai/ha Preemergence, approx. 10 days
Procedure, shortened: (§1)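 Ratings 0–100 (100 = complete control), visual, vs untreated controls at ~10 days. Application pre- or postemergence; solvent mixture with surfactant; loam/sand medium.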

[2] = test system: barnyardgrass (Echinochloa crus-galli); experiment: Test A preemergence, visual plant response rating; settings: for Barnyardgrass plant response rating: 125 g ai/ha, preemergence, 0 to 100 scale, 0 no effect, 100 complete control; for Barnyardgrass plant response rating (0 to 100 scale): 500 g ai/ha Preemergence, approx. 10 days
Procedure, shortened: as §1

[3] = test system: foxtail, giant (giant foxtail, Setaria faberii); experiment: Test A preemergence, visual plant response rating; settings: for Foxtail, Giant plant response rating: 125 g ai/ha, preemergence, 0 to 100 scale, 0 no effect, 100 complete control; for Foxtail, Giant plant response rating (0 to 100 scale): 500 g ai/ha Preemergence, approx. 10 days
Procedure, shortened: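 Compared with untreated controls, treated plants received a visual injury score on a 0–100 scale around 10 days after application. The compound, in a non-phytotoxic solvent with surfactant, was given as a preemergence soil spray or postemergence at the one- to two-leaf stage.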

kochia (Kochia scoparia) [4] = experiment: Test A preemergence, visual plant response rating; settings: for Kochia plant response rating: 125 g ai/ha, preemergence, 0 to 100 scale, 0 no effect, 100 complete control; for Kochia plant response rating (0 to 100 scale): 500 g ai/ha Preemergence, approx. 10 days
Procedure, shortened: as §1

[5] = test system: pigweed (Amaranthus retroflexus); experiment: Test A preemergence, visual plant response rating; settings: for Pigweed plant response rating: 125 g ai/ha, preemergence, 0 to 100 scale, 0 no effect, 100 complete control; for Pigweed plant response rating (0 to 100 scale): 500 g ai/ha Preemergence, approx. 10 days
Procedure, shortened: as §1

[6] = test system: ragweed (common ragweed, Ambrosia elatior); experiment: Test A preemergence, visual plant response rating; settings: for Ragweed plant response rating: 125 g ai/ha, preemergence, 0 to 100 scale, 0 no effect, 100 complete control; for Ragweed plant response rating (0 to 100 scale): 500 g ai/ha Preemergence, approx. 10 days
Procedure, shortened: as §1

[7] = test system: Italian ryegrass (Lolium multiflorum); experiment: Test A postemergence, visual plant response rating; settings: for Ryegrass, Italian plant response rating (0 to 100 scale): 500 g ai/ha, postemergence, 0 is no effect, 100 is complete control; for Ryegrass, Italian plant response rating: Postemergence, 125 g ai/ha, 0 to 100 scale (0 no effect, 100 complete control)
Procedure, shortened: as §1

[8] = test system: barnyardgrass (Echinochloa crus-galli); experiment: Test A postemergence, visual plant response rating; settings: for Barnyardgrass plant response rating (0 to 100 scale): 500 g ai/ha, postemergence, 0 is no effect, 100 is complete control; for Barnyardgrass plant response rating: Postemergence, 125 g ai/ha, 0 to 100 scale (0 no effect, 100 complete control)
Procedure, shortened: as §1

[9] = test system: blackgrass (Alopecurus myosuroides); experiment: Test A postemergence, visual plant response rating; settings: for Blackgrass plant response rating (0 to 100 scale): 500 g ai/ha, postemergence, 0 is no effect, 100 is complete control; for Blackgrass plant response rating: Postemergence, 125 g ai/ha, 0 to 100 scale (0 no effect, 100 complete control)
Procedure, shortened: as §1

corn (Zea mays) = experiment: Test A postemergence, visual plant response rating; settings: for Corn plant response rating (0 to 100 scale): 500 g ai/ha, postemergence, 0 is no effect, 100 is complete control; for Corn plant response rating: Postemergence, 125 g ai/ha, 0 to 100 scale (0 no effect, 100 complete control)
Procedure, shortened: as §1

[10] = test system: foxtail, giant (giant foxtail, Setaria faberii); experiment: Test A postemergence, visual plant response rating; settings: for Foxtail, Giant plant response rating (0 to 100 scale): 500 g ai/ha, postemergence, 0 is no effect, 100 is complete control; for Foxtail, Giant plant response rating: Postemergence, 125 g ai/ha, 0 to 100 scale (0 no effect, 100 complete control)
Procedure, shortened: as §1

[11] = test system: galium (catchweed bedstraw, Galium aparine); experiment: Test A postemergence, visual plant response rating; settings: for Galium plant response rating (0 to 100 scale): 500 g ai/ha, postemergence, 0 is no effect, 100 is complete control; for Galium plant response rating: Postemergence, 125 g ai/ha, 0 to 100 scale (0 no effect, 100 complete control)
Procedure, shortened: as §1

kochia (Kochia scoparia) [12] = experiment: Test A postemergence, visual plant response rating; settings: for Kochia plant response rating (0 to 100 scale): 500 g ai/ha, postemergence, 0 is no effect, 100 is complete control; for Kochia plant response rating: Postemergence, 125 g ai/ha, 0 to 100 scale (0 no effect, 100 complete control)
Procedure, shortened: as §1

[13] = test system: pigweed (Amaranthus retroflexus); experiment: Test A postemergence, visual plant response rating; settings: for Pigweed plant response rating (0 to 100 scale): 500 g ai/ha, postemergence, 0 is no effect, 100 is complete control; for Pigweed plant response rating: Postemergence, 125 g ai/ha, 0 to 100 scale (0 no effect, 100 complete control)
Procedure, shortened: as §1

[14] = test system: ragweed (common ragweed, Ambrosia elatior); experiment: Test A postemergence, visual plant response rating; settings: for Ragweed plant response rating (0 to 100 scale): 500 g ai/ha, postemergence, 0 is no effect, 100 is complete control; for Ragweed plant response rating: Postemergence, 125 g ai/ha, 0 to 100 scale (0 no effect, 100 complete control)
Procedure, shortened: as §1

[15] = test system: wheat (Triticum aestivum); experiment: Test A postemergence, visual plant response rating; settings: for Wheat plant response rating (0 to 100 scale): 500 g ai/ha, postemergence, 0 is no effect, 100 is complete control; for Wheat plant response rating: Postemergence, 125 g ai/ha, 0 to 100 scale (0 no effect, 100 complete control)
Procedure, shortened: as §1

[16] = test system: barnyardgrass (Echinochloa crus-galli); experiment: Test B flooded paddy test, visual plant response rating; settings: 250 g ai/ha, Flood, applied to paddy water, 2-leaf stage, evaluated after 13 to 15 days
Procedure, shortened: (§2)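 2-leaf plants; pots flooded 3 cm over soil surface; compound dosed straight into the floodwater; depth kept constant; greenhouse 13–15 d; visual rating vs. untreated controls.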

[17] = test system: ducksalad (Heteranhera limosa); experiment: as above; settings: 250 g ai/ha, Flood, applied to paddy water, 2-leaf stage, evaluated after 13 to 15 days
Procedure, shortened: as §2

rice (Oryza sativa) = experiment: as above; settings: 250 g ai/ha, Flood, applied to paddy water, 2-leaf stage, evaluated after 13 to 15 days
Procedure, shortened: as §2

[18] = test system: sedge, umbrella (small-flower umbrella sedge, Cyperus difformis); experiment: as above; settings: 250 g ai/ha, Flood, applied to paddy water, 2-leaf stage, evaluated after 13 to 15 days
Procedure, shortened: as §2

SMILES | Ryegrass, Italian plant response rating [1] | Ryegrass, Italian plant response rating (0 to 100 scale) [1] | Barnyardgrass plant response rating [2] | Barnyardgrass plant response rating (0 to 100 scale) [2] | Foxtail, Giant plant response rating [3] | Foxtail, Giant plant response rating (0 to 100 scale) [3] | Kochia plant response rating (kochia (Kochia scoparia) [4]) | Kochia plant response rating (0 to 100 scale) (kochia (Kochia scoparia) [4]) | Pigweed plant response rating [5] | Pigweed plant response rating (0 to 100 scale) [5] | Ragweed plant response rating [6] | Ragweed plant response rating (0 to 100 scale) [6] | Ryegrass, Italian plant response rating (0 to 100 scale) [7] | Ryegrass, Italian plant response rating [7] | Barnyardgrass plant response rating (0 to 100 scale) [8] | Barnyardgrass plant response rating [8] | Blackgrass plant response rating (0 to 100 scale) [9] | Blackgrass plant response rating [9] | Corn plant response rating (0 to 100 scale) (corn (Zea mays)) | Corn plant response rating (corn (Zea mays)) | further results
CCC(=O)Oc1c(C)nn(C)c(=O)c1C(=NOC)c1cccc2ccccc12 [Compound 49] | 40 | 70 | 30 | 90 | 50 | 80 | 50 | 70 | 90 | 100 | 100 | 100 | 80 | 40 | 50 | 20 | 90 | 70 | 50 | 0 | Foxtail, Giant plant response rating (0 to 100 scale) [10]: 80; Foxtail, Giant plant response rating [10]: 40; Galium plant response rating (0 to 100 scale) [11]: 90; Galium plant response rating [11]: 80; Kochia plant response rating (0 to 100 scale) (kochia (Kochia scoparia) [12]): 90; Kochia plant response rating (kochia (Kochia scoparia) [12]): 70; Pigweed plant response rating (0 to 100 scale) [13]: 90; Pigweed plant response rating [13]: 80; Ragweed plant response rating (0 to 100 scale) [14]: 90; Ragweed plant response rating [14]: 80; Wheat plant response rating (0 to 100 scale) [15]: 10; Wheat plant response rating [15]: 0; Plant response rating, Barnyardgrass (0 to 100 scale, 0 is no effect, 100 is complete control) [16]: 0; Plant response rating, Ducksalad (0 to 100 scale, 0 is no effect, 100 is complete control) [17]: 0; Plant response rating, Rice (0 to 100 scale, 0 is no effect, 100 is complete control) (rice (Oryza sativa)): 0; Plant response rating, Sedge, Umbrella (0 to 100 scale, 0 is no effect, 100 is complete control) [18]: 0
C#CCO/N=C(\c1c(O)c(C)nn(C)c1=O)c1ccc(F)c2ccccc12 [Compound 108, 4-[(Z)-(4-fluoro-1-naphthalenyl)(2-propyn-1-yloxy)imino]methyl-5-hydroxy-2,6-dimethyl-3(2H)-pyridazinone] | 100 | 100 | 90 | 100 | 100 | 100 | 50 | 100 | 100 | 100 | 90 | 100 | 100 | 100 | 90 | 90 | 100 | 100 | 80 | 30 | Foxtail, Giant plant response rating (0 to 100 scale) [10]: 90; Foxtail, Giant plant response rating [10]: 80; Galium plant response rating (0 to 100 scale) [11]: 100; Galium plant response rating [11]: 100; Kochia plant response rating (0 to 100 scale) (kochia (Kochia scoparia) [12]): 80; Kochia plant response rating (kochia (Kochia scoparia) [12]): 60; Pigweed plant response rating (0 to 100 scale) [13]: 100; Pigweed plant response rating [13]: 90; Ragweed plant response rating (0 to 100 scale) [14]: 100; Ragweed plant response rating [14]: 80; Wheat plant response rating (0 to 100 scale) [15]: 80; Wheat plant response rating [15]: 70; Plant response rating, Barnyardgrass (0 to 100 scale, 0 is no effect, 100 is complete control) [16]: 0; Plant response rating, Ducksalad (0 to 100 scale, 0 is no effect, 100 is complete control) [17]: 0; Plant response rating, Rice (0 to 100 scale, 0 is no effect, 100 is complete control) (rice (Oryza sativa)): 0; Plant response rating, Sedge, Umbrella (0 to 100 scale, 0 is no effect, 100 is complete control) [18]: 0
CCCO/N=C(\c1c(O)c(C)nn(C)c1=O)c1cccc2ccccc12 [Compound 80] | 10 | 30 | 60 | 80 | 60 | 100 | 0 | 10 | 20 | 100 | 50 | 100 | 70 | 20 | 60 | 50 | 90 | 70 | 20 | 10 | Foxtail, Giant plant response rating (0 to 100 scale) [10]: 80; Foxtail, Giant plant response rating [10]: 60; Galium plant response rating (0 to 100 scale) [11]: 90; Galium plant response rating [11]: 80; Kochia plant response rating (0 to 100 scale) (kochia (Kochia scoparia) [12]): 60; Kochia plant response rating (kochia (Kochia scoparia) [12]): 30; Pigweed plant response rating (0 to 100 scale) [13]: 80; Pigweed plant response rating [13]: 70; Ragweed plant response rating (0 to 100 scale) [14]: 90; Ragweed plant response rating [14]: 80; Wheat plant response rating (0 to 100 scale) [15]: 0; Wheat plant response rating [15]: 0; Plant response rating, Barnyardgrass (0 to 100 scale, 0 is no effect, 100 is complete control) [16]: 0; Plant response rating, Ducksalad (0 to 100 scale, 0 is no effect, 100 is complete control) [17]: 0; Plant response rating, Rice (0 to 100 scale, 0 is no effect, 100 is complete control) (rice (Oryza sativa)): 0; Plant response rating, Sedge, Umbrella (0 to 100 scale, 0 is no effect, 100 is complete control) [18]: 0
